The values below come from article PMC12970513, “Unsaturated Phosphorus Electrophiles to Probe Protein Tyrosine Phosphatases” (Angewandte Chemie (International Ed. in English), 2026).

Data set [1] in a line: Stability of bio-PN and bio-PO in HEK293T cell lysate by 31P NMR. It counts as in vitro ADME, human. Conditions: HEK293T lysate (1 mg/mL), 1 mM peptide, room temperature. On the procedure: Next, we assessed the stability of the phosphonamidic and phosphonic acid in aqueous buffers at pH 2, pH 3.5, pH 7.4, pH 8.5, and pH 11. Therefore, SM‐PN and SM‐PO were added in the corresponding buffers and monitored for 48 h at room temperature via ^31P‐NMR with triphenylphosphinoxide (TPPO) as an internal standard (Figure S2). […] Furthermore, we evaluated the stability of the peptide probes bio‐PN and bio‐PO in human lysate for subsequent experiments. These peptides were added in HEK293T cell lysate, and changes in stability were recorded for 18 h via ^31P‐NMR, in which inorganic phosphate served as an internal standard. […] Nonetheless, both peptides display sufficient stability for follow‐up studies.
A solution of 480 µL of HEK293T cell lysate (1 mg/mL) was supplemented with 60 µL of D2O. To this, 60 µL of bio-PN or bio-PO (10 mM stock in DMSO, final concentration 1 mM) were added right before the start of the measurement. The mixtures were transferred to NMR tubes and one-dimensional ^31P-NMR spectra were recorded for each sample at room temperature, in intervals of 2.5 h over the course of 18 h on a Bruker AV-III 600 spectrometer. For analysis, the spectra were Fourier-transformed, baseline corrected and the intensity of the ^31P-NMR signal was obtained by integration.

Data set [2] is described as follows: Lysate labeling by fluorescence gel scanning, HEK293T. Also noted: species or system human. To be noted: HEK293T lysate 2 mg/mL, 50 mM sodium succinate pH 6.0, 150 mM NaCl, 1 mM EDTA, 1 mM DTT, 1 h, R.T.
Method: Having identified suitable conditions, we aimed to compare our target‐specific peptide PO‐probe with a broad reactivity PTP probe in order to visualize the different reactivity patterns in human lysate. […] Using the previously reported buffer conditions, HEK293T cell lysate (50 mM sodium succinate, pH 6.0, 150 mM NaCl, 1 mM EDTA, 1 mM DTT) was incubated for 1 h with TMR‐BBP (100 µM).
For fluorescence gel scanning of TMR labeled probes samples resolved by SDS-PAGE and first visualized at a Bio-Rad imaging system equipped with a 532 nm laser for excitation. Afterwards, wherever applicable gels were stained with Coomassie brilliant blue.
For the comparison of the labeling pattern between TMR-PO and a general phosphatase probe (TMR-BBP) freshly lysed HEK293T cell lysate was adjusted to 2 mg/mL. […] For labeling with TMR-BBP cells were lysed in 50 mM sodium succinate buffer pH 6.0, 150 mM NaCl, 1 mM EDTA, and 1 mM DTT as previously reported.^[3] […] The reactions were incubated for 1 hour at room temperature and subsequently analyzed by fluorescence gel scanning.
A volume of 49 µL of each lysate was mixed with 1 µL of a 5 mM TMR-PO stock solution in DMSO and incubated for 1 hour at room temperature. Samples were resolved by SDS-PAGE and analyzed by fluorescence gel scanning.

*1 amine or outer side, *2 acyl side, *3 side chain or, on linkers, in order; H or OH if unused. Where a SMILES comes first, the peptide text is derived from it. [ ]: non-standard residue; d: D form. The star is where a group is joined. X1 = C#CP(=O)(O)Oc1ccc(C[C@H](N[*:1])C(=O)[*:2])cc1; X2 = C#CP(=O)(O)Nc1ccc(C[C@H](N[*:1])C(=O)[*:2])cc1; Biotin = O=C1N[C@H]2[C@H](CS[C@H]2CCCCC(=O)*)N1

`C#CP(=O)(O)Nc1ccc(C[C@H](NC(=O)[C@H](CCC(=O)O)NC(=O)[C@H](CC(=O)O)NC(=O)[C@H](C)NC(=O)[C@H](CC(=O)O)NC(=O)CCCC[C@@H]2SC[C@@H]3NC(=O)N[C@@H]32)C(=O)N[C@@H](CC(C)C)C(=O)N[C@H](C(=O)N2CCC[C@H]2C(=O)N[C@@H](CCC(N)=O)C(=O)N[C@@H](CCC(N)=O)C(=O)NCC(N)=O)[C@@H](C)CC)cc1` [bio-PN] (Biotin-DADE[X2]LIPQQG-NH2): the amount remaining (as a rule, what is left of the initial amount, in per cent) at 18 h, 1 mM in data set [1] (human, HEK293T cell lysate, inorganic phosphate internal standard, read-out: remaining intact in HEK293T cell lysate) is 80%. Also, in data set [1] (human, HEK293T cell lysate, read-out: decay in HEK293T cell lysate), the metabolised at 18 h, 1 mM was found to be 20%.
With `C#CP(=O)(O)Oc1ccc(C[C@H](NC(=O)[C@H](CCC(=O)O)NC(=O)[C@H](CC(=O)O)NC(=O)[C@H](C)NC(=O)[C@H](CC(=O)O)NC(=O)CCCC[C@@H]2SC[C@@H]3NC(=O)N[C@@H]32)C(=O)N[C@@H](CC(C)C)C(=O)N[C@H](C(=O)N2CCC[C@H]2C(=O)N[C@@H](CCC(N)=O)C(=O)N[C@@H](CCC(N)=O)C(=O)NCC(N)=O)[C@@H](C)CC)cc1` [bio-PO] (Biotin-DADE[X1]LIPQQG-NH2), the “decay in HEK293T cell lysate” value in data set [1] (18 h) is recorded as “remains intact”. Also, the “remaining intact in HEK293T cell lysate” value in data set [1] (18 h, inorganic phosphate internal standard) is given as “stayed unaltered”.
“α-bromo(4-((N-5/6-TAMRA-aminomethyl)phenyl)methyl)phosphonic acid [TMR-BBP]”: the “labeling pattern in HEK293T lysate (TMR-BBP)” value in data set [2] is listed as “labeled many proteins across the whole proteome”.
